Read-outs that look alike come from different tables or passages of the source.
Assays:
Assay type in all cases: biochemical
EphB3 = target: T1, EphB3 (Homo sapiens, UniProt P54753); assay: EphB3 radiometric kinase activity assay (33P ATP filter binding); settings: for remaining activity at 0.01 µM: 10 nM compound, read-out: EphB3 % act 10 nM; for remaining activity at 0.03 µM: 30 nM compound, read-out: EphB3 % act 30 nM; for remaining activity at 0.1 µM: 100 nM compound, read-out: EphB3 % act 100 nM; for IC50: read-out: EphB3 (nM) IC50; for remaining activity at 0.3 µM: 300 nM compound, read-out: EphB3 % act 300 nM
T1 sequence (P54753 34-998): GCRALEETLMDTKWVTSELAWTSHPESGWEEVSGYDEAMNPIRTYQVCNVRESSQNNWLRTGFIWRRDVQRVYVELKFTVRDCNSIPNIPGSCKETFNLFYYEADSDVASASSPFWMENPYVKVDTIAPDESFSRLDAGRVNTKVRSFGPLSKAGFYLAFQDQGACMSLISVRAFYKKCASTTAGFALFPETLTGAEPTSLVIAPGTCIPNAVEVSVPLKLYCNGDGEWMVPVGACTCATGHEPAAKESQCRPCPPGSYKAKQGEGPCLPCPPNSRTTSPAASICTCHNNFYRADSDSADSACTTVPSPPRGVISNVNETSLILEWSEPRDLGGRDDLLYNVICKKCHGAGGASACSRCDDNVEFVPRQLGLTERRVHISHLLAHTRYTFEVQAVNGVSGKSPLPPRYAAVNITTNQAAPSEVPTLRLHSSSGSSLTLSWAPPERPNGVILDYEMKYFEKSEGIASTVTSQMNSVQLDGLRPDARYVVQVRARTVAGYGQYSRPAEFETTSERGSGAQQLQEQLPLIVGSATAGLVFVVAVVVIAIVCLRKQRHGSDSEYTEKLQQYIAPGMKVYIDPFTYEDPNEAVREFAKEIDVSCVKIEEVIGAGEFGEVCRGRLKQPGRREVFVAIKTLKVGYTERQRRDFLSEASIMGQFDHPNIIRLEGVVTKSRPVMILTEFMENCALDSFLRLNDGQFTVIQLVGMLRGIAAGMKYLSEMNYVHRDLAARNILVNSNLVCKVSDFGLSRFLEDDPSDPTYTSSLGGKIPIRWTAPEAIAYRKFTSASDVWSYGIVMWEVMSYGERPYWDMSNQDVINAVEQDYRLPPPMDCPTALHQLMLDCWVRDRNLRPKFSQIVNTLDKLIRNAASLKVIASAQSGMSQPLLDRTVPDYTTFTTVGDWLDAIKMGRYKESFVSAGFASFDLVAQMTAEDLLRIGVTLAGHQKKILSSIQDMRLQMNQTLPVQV
Protocol: EphB3 radiometric kinase activity assay. To study the EphB3 kinase activity, a radioactive filter binding assay using 33P ATP was performed as described at the […] International Centre for Kinase profiling. […] The mix was harvested onto P81 filter plates and counts were read on a Topcount NXT.

EphA4 = EphA4 (Homo sapiens, UniProt P54764); assay: Eph receptor kinase activity assay (radiometric), EphA4; settings: for remaining activity at 0.01 µM: 10 nM compound, read-out: EphA4 % act 10 nM; for remaining activity at 0.03 µM: 30 nM compound, read-out: EphA4 % act 30 nM; for remaining activity at 0.1 µM: 100 nM compound, read-out: EphA4 % act 100 nM; for remaining activity at 0.3 µM: 300 nM compound, read-out: EphA4 % act 300 nM
EphA4, sequence (P54764 20-986): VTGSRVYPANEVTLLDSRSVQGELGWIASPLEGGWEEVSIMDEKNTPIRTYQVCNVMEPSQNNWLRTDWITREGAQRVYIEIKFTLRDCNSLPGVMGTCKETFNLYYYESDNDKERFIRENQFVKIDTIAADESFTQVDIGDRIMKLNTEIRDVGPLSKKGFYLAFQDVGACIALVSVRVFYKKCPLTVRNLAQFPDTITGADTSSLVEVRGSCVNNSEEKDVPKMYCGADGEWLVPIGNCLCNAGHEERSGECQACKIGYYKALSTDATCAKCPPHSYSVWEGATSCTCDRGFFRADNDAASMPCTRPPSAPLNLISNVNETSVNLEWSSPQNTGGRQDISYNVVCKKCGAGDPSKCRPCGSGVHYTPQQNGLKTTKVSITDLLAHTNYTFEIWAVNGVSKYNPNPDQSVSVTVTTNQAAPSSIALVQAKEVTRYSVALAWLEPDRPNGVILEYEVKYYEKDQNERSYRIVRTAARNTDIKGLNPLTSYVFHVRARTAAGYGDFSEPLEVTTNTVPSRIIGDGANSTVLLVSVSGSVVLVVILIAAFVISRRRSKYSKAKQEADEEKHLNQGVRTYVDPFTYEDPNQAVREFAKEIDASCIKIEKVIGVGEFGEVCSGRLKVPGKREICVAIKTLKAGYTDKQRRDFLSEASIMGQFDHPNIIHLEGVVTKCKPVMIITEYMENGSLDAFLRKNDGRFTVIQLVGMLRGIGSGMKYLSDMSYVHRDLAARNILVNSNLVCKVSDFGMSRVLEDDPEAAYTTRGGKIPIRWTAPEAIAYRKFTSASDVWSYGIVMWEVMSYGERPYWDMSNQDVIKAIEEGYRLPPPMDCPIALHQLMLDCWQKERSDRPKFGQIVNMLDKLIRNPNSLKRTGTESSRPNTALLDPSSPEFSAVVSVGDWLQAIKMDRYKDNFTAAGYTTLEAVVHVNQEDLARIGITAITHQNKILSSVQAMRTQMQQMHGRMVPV

EphA2 = EphA2 (Homo sapiens, UniProt P29317); assay: Eph receptor kinase activity assay (radiometric), EphA2; settings: for remaining activity at 0.01 µM: 10 nM compound, read-out: EphA2 % act 10 nM; for remaining activity at 0.03 µM: 30 nM compound, read-out: EphA2 % act 30 nM; for remaining activity at 0.1 µM: 100 nM compound, read-out: EphA2 % act 100 nM; for remaining activity at 0.3 µM: 300 nM compound, read-out: EphA2 % act 300 nM
EphA2, sequence (P29317 24-976): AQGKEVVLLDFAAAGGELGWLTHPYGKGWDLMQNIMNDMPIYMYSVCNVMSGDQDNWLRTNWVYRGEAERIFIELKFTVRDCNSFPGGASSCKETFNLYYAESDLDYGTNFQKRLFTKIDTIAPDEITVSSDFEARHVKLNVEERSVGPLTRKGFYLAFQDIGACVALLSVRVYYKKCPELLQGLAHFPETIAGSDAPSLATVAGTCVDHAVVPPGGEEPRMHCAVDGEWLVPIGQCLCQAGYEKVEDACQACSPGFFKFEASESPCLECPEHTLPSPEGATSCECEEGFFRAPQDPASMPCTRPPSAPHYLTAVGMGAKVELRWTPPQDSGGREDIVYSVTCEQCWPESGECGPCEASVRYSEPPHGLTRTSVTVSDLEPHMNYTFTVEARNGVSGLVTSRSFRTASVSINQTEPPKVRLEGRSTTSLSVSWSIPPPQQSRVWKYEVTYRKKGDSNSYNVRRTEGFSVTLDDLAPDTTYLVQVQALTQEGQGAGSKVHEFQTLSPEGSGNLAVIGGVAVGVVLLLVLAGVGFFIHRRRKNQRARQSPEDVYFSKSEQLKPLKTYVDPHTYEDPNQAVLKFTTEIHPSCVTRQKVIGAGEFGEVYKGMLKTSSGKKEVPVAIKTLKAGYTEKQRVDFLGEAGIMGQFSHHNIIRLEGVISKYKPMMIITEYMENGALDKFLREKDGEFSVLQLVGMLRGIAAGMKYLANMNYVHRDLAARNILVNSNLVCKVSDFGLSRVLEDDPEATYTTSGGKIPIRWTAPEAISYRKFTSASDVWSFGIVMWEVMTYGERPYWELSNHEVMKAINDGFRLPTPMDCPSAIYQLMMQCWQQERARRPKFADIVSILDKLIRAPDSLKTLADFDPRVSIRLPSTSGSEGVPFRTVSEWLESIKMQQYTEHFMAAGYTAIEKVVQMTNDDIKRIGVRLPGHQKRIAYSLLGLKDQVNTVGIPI

EphB4 = target: T2, EphB4 (Homo sapiens, UniProt P54760); assay: Eph receptor kinase activity assay (radiometric), EphB4; settings: for remaining activity at 0.01 µM: 10 nM compound, read-out: EphB4 % act 10 nM; for remaining activity at 0.03 µM: 30 nM compound, read-out: EphB4 % act 30 nM; for remaining activity at 0.1 µM: 100 nM compound, read-out: EphB4 % act 100 nM; for remaining activity at 0.3 µM: 300 nM compound, read-out: EphB4 % act 300 nM
T2 sequence (P54760 16-987): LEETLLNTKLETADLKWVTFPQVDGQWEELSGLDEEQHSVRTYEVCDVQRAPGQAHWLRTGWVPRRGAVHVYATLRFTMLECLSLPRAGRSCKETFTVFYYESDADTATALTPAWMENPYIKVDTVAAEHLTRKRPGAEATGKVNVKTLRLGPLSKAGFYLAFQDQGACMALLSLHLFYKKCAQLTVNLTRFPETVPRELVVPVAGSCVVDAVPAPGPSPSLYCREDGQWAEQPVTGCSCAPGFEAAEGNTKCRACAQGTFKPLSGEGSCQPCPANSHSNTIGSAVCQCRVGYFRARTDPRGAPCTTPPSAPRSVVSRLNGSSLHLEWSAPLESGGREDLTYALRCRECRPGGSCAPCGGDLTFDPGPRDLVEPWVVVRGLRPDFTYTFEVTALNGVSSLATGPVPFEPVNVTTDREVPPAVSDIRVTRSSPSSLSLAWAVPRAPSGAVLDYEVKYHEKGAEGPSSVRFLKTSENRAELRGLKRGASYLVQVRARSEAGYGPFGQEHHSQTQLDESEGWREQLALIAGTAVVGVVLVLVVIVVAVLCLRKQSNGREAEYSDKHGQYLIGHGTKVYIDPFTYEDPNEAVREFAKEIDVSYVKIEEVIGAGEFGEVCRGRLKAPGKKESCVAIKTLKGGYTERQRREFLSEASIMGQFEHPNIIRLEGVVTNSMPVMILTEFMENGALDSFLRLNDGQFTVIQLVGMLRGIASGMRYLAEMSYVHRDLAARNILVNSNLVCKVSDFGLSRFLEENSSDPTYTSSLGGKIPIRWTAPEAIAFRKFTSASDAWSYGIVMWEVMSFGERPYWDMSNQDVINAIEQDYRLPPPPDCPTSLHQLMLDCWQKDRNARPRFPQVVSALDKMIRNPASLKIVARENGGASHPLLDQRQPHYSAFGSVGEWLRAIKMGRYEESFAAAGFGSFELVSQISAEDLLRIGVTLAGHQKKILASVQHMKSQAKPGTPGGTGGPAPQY

| remaining activity at 0.01 µM (EphB3) [%] | remaining activity at 0.03 µM (EphB3) [%] | remaining activity at 0.1 µM (EphB3) [%] | remaining activity at 0.01 µM (EphA4) [%] | remaining activity at 0.03 µM (EphA4) [%] | remaining activity at 0.1 µM (EphA4) [%] | remaining activity at 0.01 µM (EphA2) [%] | remaining activity at 0.03 µM (EphA2) [%] | remaining activity at 0.1 µM (EphA2) [%] | remaining activity at 0.01 µM (EphB4) [%] | remaining activity at 0.03 µM (EphB4) [%] | remaining activity at 0.1 µM (EphB4) [%] | Compound | further results |
| --- | --- | --- | --- | --- | --- | --- | --- | --- | --- | --- | --- | --- | --- |
| 46 |  | 7 | 36 |  | 12 | 55 |  | 25 | 62 |  | 12 | NCc1cccc(-c2ccc3ncc(C(=O)Nc4ccccc4Cl)n3c2)c1 [compound 108, 6-(3-(Aminomethyl)phenyl)-N-(2-chlorophenyl)imidazo[1,2-a]pyridine-3-carboxamide] | remaining activity at 0.3 µM (EphB3): 4%; remaining activity at 0.3 µM (EphA4): 6%; remaining activity at 0.3 µM (EphA2): 11%; remaining activity at 0.3 µM (EphB4): 2% |
| 110 | 60.5 | 55.9 | 83.8 | 62.8 | 57.8 | 78.1 | 86 | 55.9 | 93.1 | 95.5 | 98.4 | Cc1ccc(-c2ccc3ncc(C(=O)Nc4ccccc4Cl)n3c2)cc1 [compound 104, N-(2-Chlorophenyl)-6-(4-methylphenyl)imidazo[1,2-a]pyridine-3-carboxamide] |  |
| 121 | 81.1 | 63.7 | 53.9 | 40.9 | 35.3 | 105 | 88.1 | 65.3 | 103 | 109 | 93.8 | Cc1cccc(-c2ccc3ncc(C(=O)Nc4ccccc4Cl)n3c2)c1 [compound 105, N-(2-Chlorophenyl)-6-(3-methylphenyl)imidazo[1,2-a]pyridine-3-carboxamide] |  |

Continued, compound first:

| Compound | remaining activity at 0.01 µM (EphB3) [%] | remaining activity at 0.03 µM (EphB3) [%] | remaining activity at 0.1 µM (EphB3) [%] | remaining activity at 0.01 µM (EphA4) [%] | remaining activity at 0.03 µM (EphA4) [%] | remaining activity at 0.1 µM (EphA4) [%] | remaining activity at 0.01 µM (EphA2) [%] | remaining activity at 0.03 µM (EphA2) [%] | remaining activity at 0.1 µM (EphA2) [%] | remaining activity at 0.01 µM (EphB4) [%] | remaining activity at 0.03 µM (EphB4) [%] | remaining activity at 0.1 µM (EphB4) [%] | further results |
| --- | --- | --- | --- | --- | --- | --- | --- | --- | --- | --- | --- | --- | --- |
| O=C(Nc1ccccc1Cl)c1cnc2ccc(-c3ccccc3O)cn12 [compound 116, N-(2-chlorophenyl)-6-(2-hydroxyphenyl)imidazo[1,2-a]pyridine-3-carboxamide] | 112 | 65.5 | 42.9 | 99.5 | 77 | 82.4 | 76.4 | 84 | 61.3 | 96.5 | 103 | 103 | IC50 (EphB3; Table 2, Example 12): 60 nM; IC50 (EphA4; Table 2, Example 12): 248 nM; IC50 (EphA2; Table 2, Example 12): 345 nM; IC50 (EphB4; Table 2, Example 12): 687 nM |
| COc1ccccc1-c1ccc2ncc(C(=O)Nc3ccccc3Cl)n2c1 [compound 101, N-(2-Chlorophenyl)-6-(2-methoxyphenyl)imidazo[1,2-a]pyridine-3-carboxamide] | 80.9 | 62 | 52.7 | 100 | 80.2 | 74.5 | 67.7 | 65.4 | 77 | 98.8 | 101 | 82 | IC50 (EphB3; Table 2, Example 12): 90 nM; IC50 (EphA4; Table 2, Example 12): 297 nM; IC50 (EphA2; Table 2, Example 12): 315 nM; IC50 (EphB4; Table 2, Example 12): 675 nM |
| COc1ccc(-c2ccc3ncc(C(=O)Nc4ccccc4Cl)n3c2)cc1 [compound 102, N-(2-Chlorophenyl)-6-(4-methoxyphenyl)imidazo[1,2-a]pyridine-3-carboxamide] | 92.4 | 92.7 | 88.6 | 80.4 | 74.1 | 83.9 | 79.9 | 69.4 | 59.6 | 104 | 103 | 98 |  |
| CN(C)CC(=O)N1CCC(c2ccc3ncc(C(=O)Nc4ccccc4Cl)n3c2)CC1 [compound 119, N-(2-Chlorophenyl)-6-(1-(dimethylglycyl)piperidin-4-yl)imidazo[1,2-a]pyridine-3-carboxamide] | 116 | 90.3 | 78.3 | 80.3 | 74.2 | 72.8 | 71.3 | 61.2 | 45.1 | 87.2 | 75.9 | 76.3 |  |
| O=C(Nc1ccccc1Cl)c1cnc2ccc(-c3ccncc3)cn12 [compound 114, N-(2-Chlorophenyl)-6-(pyridin-4-yl)imidazo[1,2-a]pyridine-3-carboxamide] | 52 |  | 13 | 49 |  | 21 | 51 |  | 32 | 39 |  | 4 | remaining activity at 0.3 µM (EphB3): 5%; remaining activity at 0.3 µM (EphA4): 10%; remaining activity at 0.3 µM (EphA2): 14%; remaining activity at 0.3 µM (EphB4): 4% |
| COc1cccc(NC(=O)c2cnc3ccc(C4CCNCC4)cn23)c1Cl [compound 117, N-(2-Chloro-3-methoxyphenyl)-6-(piperidin-4-yl)imidazo[1,2-a]pyridine-3-carboxamide] | 110 | 110 | 102 | 74.7 | 75.9 | 89.8 | 95.8 | 83.8 | 80.8 | 104 | 95.6 | 86.7 | IC50 (EphB3; Table 3, Example 13): < 10 nM; IC50 (EphA4; Table 3, Example 13): < 10 nM; IC50 (EphA2; Table 3, Example 13): < 10 nM; IC50 (EphB4; Table 3, Example 13): < 10 nM |
